Experiment: Inhibition of human STING in human THP-1 Dual cells assessed as secreted luciferase reporter of interferon stimulated gene (ISG) measured after 24 hrs incubation by QUANTI-Luc detection assay

Point of comparison: CN1CCc2cc(NC(=O)Nc3c[nH]c4ccc(F)cc34)ccc21, IC50 1180 nM. Against it:
- O=C(Nc1c[nH]c2cc(Cl)ccc12)N1CCc2[nH]c3c(Cl)c(Cl)ccc3c2C1 — 2.8-fold higher, 3310 nM
- Cc1ccc2c(NC(=O)N3CCc4[nH]c5c(Cl)c(Cl)ccc5c4C3)c[nH]c2c1 — higher, > 10000 nM
- COc1ccc2c(NC(=O)N3CCc4[nH]c5c(Cl)c(Cl)ccc5c4C3)c[nH]c2c1 — higher, > 10000 nM
- O=C(Nc1ccc2c(c1)OC(F)(F)O2)Nc1c[nH]c2ccc(-c3cn(CCN4CCOCC4)nn3)cc12 — higher, > 10000 nM
- O=C(Nc1cccc2c1OC(F)(F)O2)Nc1c[nH]c2ccccc12 — 1.6-fold higher, 1830 nM
- O=C(Nc1ccc2c(c1)OC(F)(F)O2)Nc1c[nH]c2ccc(-c3cn(CCO)nn3)cc12 — higher, > 10000 nM
- O=C(Nc1c[nH]c2cc(F)ccc12)N1CCc2[nH]c3c(Cl)c(Cl)ccc3c2C1 — 2.7-fold higher, 3180 nM
- O=C(Nc1ccc2c(c1)OC(F)(F)O2)Nc1c[nH]c2ccc(Cl)cc12 — 18-fold lower, 66 nM
- O=C(Nc1c[nH]c2ccc(F)cc12)N1CCc2oc3c(Cl)c(Cl)ccc3c2C1 — 3.1-fold lower, 382 nM
- O=C(Nc1c[nH]c2ccc(Br)cc12)N1CCc2[nH]c3c(Cl)c(Cl)ccc3c2C1 — within 1.5-fold, 791 nM
- Cn1cc(C#Cc2ccc3[nH]cc(NC(=O)Nc4ccc5c(c4)OC(F)(F)O5)c3c2)cn1 — 4.5-fold lower, 264 nM
- CC(=O)OCC#Cc1ccc2[nH]cc(NC(=O)Nc3ccc4c(c3)OC(F)(F)O4)c2c1 — 2.4-fold lower, 489 nM
- O=C(Nc1c[nH]c2ccccc12)N1CCc2[nH]c3c(Cl)c(Cl)ccc3c2C1 — 1.8-fold higher, 2120 nM
- C=CC(=O)Nc1ccc2[nH]cc(NC(=O)Nc3ccc4c(c3)OC(F)(F)O4)c2c1 — higher, > 10000 nM
- O=C(Nc1ccc2c(c1)OC(F)(F)O2)Nc1c[nH]c2ccc(C#CC3CC3)cc12 — 4.6-fold lower, 258 nM
- O=C(Nc1ccc2c(c1)OC(F)(F)O2)Nc1c[nH]c2ccc(C#CCO)cc12 — 1.9-fold higher, 2190 nM
- O=C(Nc1ccc2c(c1)COB2O)Nc1c[nH]c2ccc(F)cc12 — higher, > 10000 nM
- O=C(Nc1ccc2c(c1)OC(F)(F)O2)Nc1c[nH]c2ccc(Br)cc12 — 17-fold lower, 71 nM
- N#CC/C=C/c1ccc2[nH]cc(NC(=O)Nc3ccc4c(c3)OC(F)(F)O4)c2c1 — 10-fold lower, 116 nM
- Fc1ccc2[nH]cc(Nc3nc4cc(C(F)(C(F)(F)F)C(F)(F)F)ccc4[nH]3)c2c1 — 4.4-fold lower, 269 nM
- COC(=O)/C=C/c1ccc2[nH]cc(NC(=O)Nc3ccc4c(c3)OC(F)(F)O4)c2c1 — 3.1-fold higher, 3650 nM
- Fc1ccc2[nH]cc(Nc3nc4cc5c(cc4[nH]3)OC(F)(F)O5)c2c1 — 6.1-fold lower, 192 nM
- Fc1cc2[nH]cc(Nc3nc4cc(C5CCCC5)ccc4[nH]3)c2cc1F — 5.5-fold lower, 216 nM
- O=C(Nc1c[nH]c2ccccc12)N1CCc2[nH]c3c(Cl)c(Cl)cc(Br)c3c2C1 — 1.7-fold higher, 2050 nM
- C#Cc1ccc2[nH]cc(NC(=O)Nc3ccc4c(c3)OC(F)(F)O4)c2c1 — 9.9-fold lower, 119 nM
- Fc1cnc2[nH]cc(Nc3nc4cc(C5CCCC5)ccc4[nH]3)c2c1 — 27-fold lower, 44 nM
- O=C(Nc1ccc2c(c1)OCO2)Nc1c[nH]c2ccc(F)cc12 — 2.9-fold higher, 3470 nM
- Cn1ccc(-c2cc(Cl)c(Cl)c3[nH]c4c(c23)CN(C(=O)Nc2c[nH]c3ccccc23)CC4)n1 — higher, > 10000 nM
- O=C(Nc1ccc2c(c1)OC(F)(F)C(F)(F)O2)Nc1c[nH]c2ccc(F)cc12 — 11-fold lower, 110 nM
- Fc1ccc2[nH]cc(Nc3nc4cc(C5CCCC5)ccc4[nH]3)c2c1 — 27-fold lower, 43 nM
- COCCOCCn1cc(-c2ccc3[nH]cc(NC(=O)Nc4ccc5c(c4)OC(F)(F)O5)c3c2)nn1 — 2.1-fold higher, 2490 nM
- O=C(Nc1ccc2c(c1)OC(F)(F)O2)Nc1c[nH]c2ccccc12 — 66-fold lower, 18 nM
- COc1ccc2[nH]cc(NC(=O)N3CCc4[nH]c5c(Cl)c(Cl)ccc5c4C3)c2c1 — 2-fold higher, 2380 nM
- O=C(Nc1ccc2c(c1)OCCO2)Nc1c[nH]c2ccc(F)cc12 — within 1.5-fold, 1350 nM
- N#C/C=C/c1ccc2[nH]cc(NC(=O)Nc3ccc4c(c3)OC(F)(F)O4)c2c1 — higher, > 10000 nM
- O=C(Nc1ccc2c(c1)OC(F)(F)O2)Nc1c[nH]c2ccc(C#CC(F)(F)F)cc12 — higher, > 10000 nM
- O=C(Nc1ccc2c(c1)NCC2)Nc1c[nH]c2ccc(F)cc12 — within 1.5-fold, 1220 nM
- O=C(Nc1c[nH]c2ccc(F)cc12)N1CCc2[nH]c3c(Cl)c(Cl)ccc3c2C1 — 2-fold higher, 2400 nM
- O=C(Nc1c[nH]c2ccc(Br)cc12)N1CCc2oc3c(Cl)c(Cl)ccc3c2C1 — 3.3-fold lower, 353 nM
- O=C(Nc1ccc2c(c1)CCN2)Nc1c[nH]c2ccc(F)cc12 — higher, > 10000 nM
- CCOP(=O)(Cc1ccc2[nH]cc(NC(=O)Nc3ccc4c(c3)OC(F)(F)O4)c2c1)OCC — higher, > 10000 nM
